Results on six compounds are retold here after patent publication US3959300A, “Novel indolobenzazepine derivatives, useful as tranquilizers” (priority 1974, dated 1976).

The structures appear in SMILES notation. Like-named read-outs stand apart in the source and are kept apart here.

Data set [1] can be described thus: Water solubility. The format is physicochemical. The following applies: methanesulfonate salt.
In data set [2] the test system is locomotor activity. As to the kind of experiment: Mouse Screen (decrease in locomotor activity). In kind it is in vivo. The following applies: po, read-out: Screen (mouse) MED. From the text: (§1) Results given in: mg/kg po/mouse
Mouse Screen: The minimal effective dose (MED) is the lowest oral dose producing an obvious decrease in locomotor activity, using observational techniques. Groups of 3 mice are given decreasing oral doses at 0.5 log intervals (300, 100, 30 . . . etc.) until no behavioral effects are evident. Decrease of locomotor activity is indicative of general central nervous system depressant activity.

The test system of data set [3] is amphetamine hyperactivity. As to the kind of experiment: Mouse Anti-Amphetamine Activity (A.A.). The format is in vivo. The note with it: po, read-out: A.A. (mouse) ED50. How it is done:
as §1
Mouse Anti-Amphetamine Activity: Groups of 5 mice are given d-amphetamine sulfate 5 mg/kg sc 1 hour after oral administration of graded doses of test compound. The mice are placed in photocell activity units immediately after amphetamine administration and locomotor activity is recorded for 60 minutes. The ED50 is calculated as the dose causing a 50% reduction in locomotor activity relative to the activity of the amphetamine-treated control mice. Amphetamine antagonism at non-toxic doses appears to correlate with major tranquilizer activity in man.

Data set [4] concerns Conditioned Avoidance Response. As to the kind of experiment: Mouse Conditioned Avoidance Response (C.A.R.). The format is in vivo. The following applies: po, read-out: C.A.R. (mouse) ED50. As for the experimental part:
(§2) Results given in: mg/kg po/mouse mg/kg po/rat
(§3) Mouse and Rat Conditioned Avoidance Response: Mice and rats are trained to jump out of a pit onto a ledge to avoid shock when presented with a light and sound conditioned stimulus. The animals are tested 1, 2, and 4 hours after administration of the test compound. Three to 4 dose levels and groups of 4-8 animals/dose are used. The ED50 is the dose producing a block of the C.A.R. in 50% of the animals. Blocking of the C.A.R. at non-toxic doses appears to correlate with major tranquilizer activity in man.

Data set [5] concerns Conditioned Avoidance Response. As to the kind of experiment: Rat Conditioned Avoidance Response (C.A.R.). The format is in vivo. The note with it: po, read-out: C.A.R. (rat) ED50. How it is done: as §2, §3
For data set [6], the system named is Conditioned Avoidance Response. As to the kind of experiment: Dog Conditioned Avoidance Response (C.A.R.). The format is in vivo. The following applies: po; for ED50: Canis lupus familiaris, read-out: C.A.R. (dog) ED50. As for the experimental part: Results given in: mg/kg po/dog
Dog Conditioned Avoidance Response: Dogs are trained to raise a forelimb when presented with a conditioned stimulus (light) in order to avoid an electric shock. Blocks of 10 trials are given to groups of four dogs during a pretreatment period and at 1, 2, and 4 hours after oral administration of test compound. The ED50 values are calculated as the dose causing 50% of the animals to show five or more incorrect responses. Blocking of the C.A.R. at non-toxic doses appears to correlate with major tranquilizer activity in man.

In data set [7] the test system is taming. As to the kind of experiment: Rhesus Monkey Taming Effects. The format is in vivo. The following applies: po; for minimal effective dose: Macaca mulatta, read-out: Taming (monkey) MED. How it is done: (§4) Results given in: mg/kg po/monkey
Rhesus Monkey Taming Effects: Compounds are administered orally to groups of six rhesus monkeys. The behavior of the animals is then evaluated by observational means. Taming effects are determined by the ability of the observer to approach and touch the monkey. Compounds with major tranquilizer activity in man can produce a state of passive tameness in the rhesus monkey wherein it can be touched without provoking any of the threatening or aggressive behavior seen in the normal animal. The MED is the minimal oral dose at which some taming effect can be observed.

In data set [8] the test system is approach-avoidance ("conflict") situation. As to the kind of experiment: Rat Conflict (Approach-Avoidance) Test. The format is in vivo. The note with it: for minimal effective dose: read-out: Conflict (rat) MED. How it is done:
Results given in: mg/kg po/rat
Rat Conflict (Approach-Avoidance) Test: Food deprived rats are trained to pass from one compartment to an adjacent one to obtain food. The training consists of three exposures to the test situation on day one of the experiment. The rats are given limited (1-2 hr) free access to food in their home cages on day one and are then food deprived for at least 18 hours. On day two of the experiment, the rats are given a control exposure to the test situation followed by a second exposure after 1/2 to 1 hour in which they are shocked after crossing and eating. Groups of 6-8 rats are then dosed orally with solvent or test compound and then reexposed to the test situation after 1 or 2 hours.
This effect is dose-related (and the MED is the minimum dose at which this effect is obtained); rats dosed with solvent only consistently show a high level of fear as evidenced by decreased mobility and absence of feeding when placed in the test situation after receiving a shock.

Data set [9] concerns approach-behavior. As to the kind of experiment: Rhesus Monkey Approach Effects. The note with it: po; for minimal effective dose: Macaca mulatta, read-out: Approach (monkey) MED. The format is in vivo. How it is done: as §4
Rhesus Monkey Approach Effects: Compounds are administered orally to groups of six rhesus monkeys. The behavior of the animals is then evaluated by observational means. […] The MED is the oral dose at which the animals show signs of decreased fear.

The mark [10] stands for this setting: mouse, d-amphetamine sulfate 5 mg/kg sc 1 hour after compound, 60 minutes recording.
The mark [11] stands for this setting: mouse, tested 1, 2, and 4 hours after administration.
[12] abbreviates: rat, tested 1, 2, and 4 hours after administration.
[13] abbreviates: dog, 1, 2, and 4 hours after administration.
[14] abbreviates: po, rat, reexposed after 1 or 2 hours.
The mark [15] stands for this setting: mouse, lowest dose producing obvious decrease in locomotor activity.

For the compound `CS(=O)(=O)O.c1ccc2c(c1)CCc1cccc3c4c(n-2c13)CCN(CC1CC1)C4` [3-(cyclopropylmethyl)-1,2,3,4,8,9-hexahydropyrido[4',3':2,3]indolo[1,7-ab][1]benzazepine methanesulfonate], the solubility in data set [1] is > 500 mg/mL.

Consider `c1ccc2c(c1)CCc1cccc3c4c(n-2c13)CCN(CC1CC1)C4` [No. 3, 3-(cyclopropylmethyl)-1,2,3,4,8,9-hexahydropyrido[4',3':2,3]indolo[1,7-ab][1]benzazepine], for which the minimal effective dose was in the range of 30 to 100 mg/kg in [2] (Mus musculus), 3 to 10 mg/kg in [7] (rhesus monkey), 10 to 20 mg/kg in data set [8] (setting [14]) and 1 to 3 mg/kg in [9] (rhesus monkey). The 50% effective dose (ED50) in data set [3] (setting [10]) was 6 mg/kg; in data set [4] (setting [11]), 20 mg/kg; in data set [5] (setting [12]) it was 40 mg/kg; in [6] (setting [13]) it was > 20 mg/kg.

With `Cl.c1ccc2c(c1)CCc1cccc3c4c(n-2c13)CCN(CC1CCCC1)C4` [No. 7, 3-(cyclopentylmethyl)-1,2,3,4,8,9-hexahydropyrido[4',3':2,3]indolo[1,7-ab][1]benzazepine hydrochloride], the figures for the minimal effective dose in data set [2] (setting [15]), in data set [7] (rhesus monkey) and in data set [8] (setting [14]) were 3 to 10 mg/kg, 1 to 3 mg/kg and > 40 mg/kg, respectively. Further, the 50% effective dose (ED50) in data set [3] (setting [10]) was determined as 2 mg/kg; in data set [4] (setting [11]), 20 mg/kg; in [5] (setting [12]), 30 mg/kg; in data set [6] (setting [13]), 6 mg/kg.

For the compound `Cl.c1ccc2c(c1)CCc1cccc3c4c(n-2c13)CCN(CC1CCCCC1)C4` [No. 8, 3-(cyclohexylmethyl)-1,2,3,4,8,9-hexahydropyrido[4',3':2,3]indolo[1,7-ab][1]benzazepine hydrochloride], the minimal effective dose in data set [2] (setting [15]) was 3 to 10 mg/kg; in data set [7] (rhesus monkey), 1 to 3 mg/kg; in data set [8] (setting [14]) it was > 40 mg/kg. Besides, the ED50 was 2 mg/kg in [3] (setting [10]), 20 mg/kg in data set [4] (setting [11]), 30 mg/kg in [5] (setting [12]) and 10 mg/kg in [6] (setting [13]).

Consider `CN(C)CCCN1c2ccccc2Sc2ccc(Cl)cc21` [chlorpromazine, reference compound], for which the minimal effective dose fell in the range of 3 to 10 mg/kg in data set [2] (Mus musculus) and 10 to 30 mg/kg in data set [7]. The ED50 was 5 mg/kg in data set [3] (Mus musculus, 1 h); 5 mg/kg in data set [4] (Mus musculus, 4 h); 10 mg/kg in [5] (Rattus norvegicus, 4 h); 6 mg/kg in data set [6] (4 h). The “Conflict (rat) MED, symbol” value in data set [8] (po, rat) is recorded as “I”. Moreover, in data set [9] (rhesus monkey), the “Approach (monkey) MED, symbol” value is “I”.

`CN1C(=O)CN=C(c2ccccc2)c2cc(Cl)ccc21` [diazepam, reference compound]: the minimal effective dose was 3 to 10 mg/kg in [2] (Mus musculus); 3 to 10 mg/kg in data set [8] (Rattus norvegicus, po); 3 to 10 mg/kg in data set [9]. The “C.A.R. (dog) ED50, symbol” value in [6] (dog) was “I”. Further, the “Taming (monkey) MED, symbol” value in data set [7] (rhesus monkey) is recorded as “I”. The “decreased fear in the test animals, in words” value in data set [8] (rats cross to obtain food despite earlier shock, dose-related) is recorded as “apparent decreased fear in the test animals”.
